Laboratory results taken from PMC7287882, “Dual miRNases for Triple Incision of miRNA Target: Design Concept and Catalytic Performance” (Molecules, 2020).

Assays:
Format in all cases: biochemical
miR-21 = assay: Ribonuclease activity assay, cleavage of miR-21; conditions: buffer (2) 20 mM Tris-HCl pH 7.8, 40 mM KCl, 8 mM MgCl2, 1 mM DTT, 0.02 mg/mL BSA, miRNA 1 µM, DC 20 µM, 37 °C
Description: (§1) The ribonuclease activity of DCs was studied under two different buffer conditions: buffer (1) contained 50 mM Tris-HCl, pH 7.0, 200 mM KCl, 1 mM EDTA, which imitates intracellular conditions (e.g., pH and potassium ions concentration) and was used in a number of studies previously; and buffer (2) contained 20 mM Tris-HCl, pH 7.8, 40 mM KCl, 8 mM MgCl2, 1 mM DTT, 0.02 mg/mL BSA, which is recommended for in vitro reactions with RNase H (Figure 3 and Figure 4).
(§2) Figure 3 Kinetics of cleavage of 5′-[^32P]-labeled miR-17, miR-18a, miR-155, miR-21 and miR-21_1 by corresponding DCs in the buffer (1), containing 50 mM Tris-HCl, pH 7.0, 200 mM KCl and 1 mM EDTA. (a–e) Radioautographs of 18% denaturing PAAG showing the cleavage products of miR-17, miR-18a, miR-155, miR-21 and miR-21_1, respectively. miRNA (1 µM) and corresponding DC (20 µM) were incubated at 37 °C for 72 h. Lanes Im and T1—imidazole ladder and partial RNA digestion with RNase T1, respectively; control–miRNA was incubated in the absence of the conjugate. The incubation time (in hours) is show at the top. SS gap–single-stranded region of miRNA formed upon hybridization with DC; (f) Kinetics of miRNAs cleavage by DCs depending on the incubation time. Data are presented as mean ± s.e.
(§3) Figure 4 Kinetics of cleavage of 5′-[^32P]-labeled miR-17, miR-18a, miR-155, miR-21, and miR-21_1 by corresponding DCs in the buffer (2), containing 20 mM Tris-HCl, pH 7.8, 40 mM KCl, 8 mM MgCl2, 1 mM DTT, 0.02 mg/mL BSA. (a–e) Radioautographs of 18% denaturing PAAG showing the cleavage products of miR-17, miR-18a, miR-155, miR-21 and miR-21_1, respectively. miRNA (1 µM) and corresponding DC (20 µM) were incubated at 37 °C for 72 h. Lanes Im and T1–imidazole ladder and partial RNA digestion with RNase T1, respectively; control–miRNA was incubated in the absence of the conjugate. The incubation time (in hours) is shown at the top. SS gap–single-stranded region of miRNA formed upon hybridization with DC; (f) Kinetics of miRNAs cleavage by DCs. Data are presented as mean ± s.e.
(§4) The reaction mixture (10 µL) contained 800 cpm (Cherenkov’s counting) of [^32P]-miRNA, 1 μM unlabeled miRNA, one of the conjugates at a concentration 10 or 20 μM and one of the buffers: 50 mM Tris-HCl, pH 7.0, 200 mM KCl, 1 mM EDTA–buffer (1) or 20 mM Tris-HCl, pH 7.8, 40 mM KCl, 8 mM MgCl2, 1 mM DTT, 0.02 mg/mL BSA–buffer (2). The mixture was incubated at 37 °C for 0–72 h and quenched by precipitation of RNA with 2% LiClO4 in acetone (90 µL). RNA was collected by centrifugation and dissolved in loading buffer (8 M urea, 0.025% bromophenol blue, 0.025% xylene cyanol). RNA cleavage products were analyzed in 18% PAAG/8M urea using TBE (100 mM Tris-borate, pH 8.3, 2 mM EDTA) as running buffer. To identify cleavage sites, an imidazole and T1-ladders produced by partial RNA cleavage with 2 M imidazole buffer (pH 7.0) and with RNase T1 [68], respectively, were run in parallel. To obtain quantitative data, gels were dried and analyzed using Molecular Imager FX. The total extent of RNA cleavage and the extent of RNA cleavage at each individual site were determined by using Quantity One software v.4.1 (Bio-Rad, Hercules, CA, USA).

miR-21_1 = assay: Ribonuclease activity assay, cleavage of modified miR-21_1; conditions: miRNA 1 µM, DC 20 µM, 37 °C
Description: as §1
Despite the high binding affinity of all DCs to their matching miRNA targets, miR-21 was not cleaved by the corresponding Dual conjugate (Figure 3d). The most probable reason for this was the absence of the pyrimidine-A sites sensitive towards cleavage by this type of conjugates within the single-stranded “gap” formed upon binding to conjugate. In order to verify this hypothesis, we tested the cleavage of the modified miR-21 sequence (miRNA-21_1) containing 2 substitutions in the gap region (AGACU → AUACA) to generate C-A and U-A bonds. Such replacement, indeed, led to a noticeable cleavage of the miR-21_1 target with miR-21-targeting DC at the introduced U11-A12 and C13-A14 sites (Figure 3e) with the cleavage efficiency reaching 18% (Figure 3f, Table S2).
as §4

miR-18a = assay: Ribonuclease activity assay, cleavage of miR-18a; conditions: miRNA 1 µM, DC 20 µM, 37 °C
Description: as §1, §2, §3, §4

[1] = buffer (1) 50 mM Tris-HCl pH 7.0, 200 mM KCl, 1 mM EDTA, 2 h
[2] = buffer (1) 50 mM Tris-HCl pH 7.0, 200 mM KCl, 1 mM EDTA, 24 h
[3] = buffer (1) 50 mM Tris-HCl pH 7.0, 200 mM KCl, 1 mM EDTA, 48 h
[4] = buffer (2) 20 mM Tris-HCl pH 7.8, 40 mM KCl, 8 mM MgCl2, 1 mM DTT, 0.02 mg/mL BSA, 6 h
[5] = buffer (2) 20 mM Tris-HCl pH 7.8, 40 mM KCl, 8 mM MgCl2, 1 mM DTT, 0.02 mg/mL BSA, 24 h
[6] = buffer (2) 20 mM Tris-HCl pH 7.8, 40 mM KCl, 8 mM MgCl2, 1 mM DTT, 0.02 mg/mL BSA, 48 h

## TCAACATC–linker 1–[GRLRL]2–linker 2–GATAAGCTA [miRNA-21-DC, Dual oligonucleotide-peptide conjugate targeted to miR-21: catalytic peptide [LRLRG]2 between two 2-aminoadenine-containing oligodeoxyribonucleotides]
miR-21; 2 h
  Total Cleavage: 4%
miR-21; 6 h
  Total Cleavage: 13%
miR-21; 24 h
  Total Cleavage: 30%
miR-21; 48 h
  Total Cleavage: 30%
miR-21; 72 h
  Total Cleavage: 34%
miR-21_1; [1]
  Total Cleavage: 0,7%
miR-21_1; [2]
  Total Cleavage: 10%
miR-21_1; [3]
  Total Cleavage: 18%
miR-21_1; [4]
  Total Cleavage: 14%
miR-21_1; [5]
  Total Cleavage: 48%
miR-21_1; [6]
  Total Cleavage: 63%
miR-21_1
  rise of Kobs in buffer (2) compared to Kobs in buffer (1): 3 fold

## TATCTGC–linker 1–[GRLRL]2–linker 2–ATGCACCTTA [miRNA-18a-DC, Dual oligonucleotide-peptide conjugate targeted to miR-18a: catalytic peptide [LRLRG]2 between two 2-aminoadenine-containing oligodeoxyribonucleotides]
miR-18a; [1]
  Total Cleavage: 0%
miR-18a; buffer (1) 50 mM Tris-HCl pH 7.0, 200 mM KCl, 1 mM EDTA, 6 h
  Total Cleavage: 1%
miR-18a; [2]
  Total Cleavage: 3%
miR-18a; [3]
  Total Cleavage: 7%
miR-18a; buffer (1) 50 mM Tris-HCl pH 7.0, 200 mM KCl, 1 mM EDTA, 72 h
  Total Cleavage: 8%
miR-18a; buffer (2) 20 mM Tris-HCl pH 7.8, 40 mM KCl, 8 mM MgCl2, 1 mM DTT, 0.02 mg/mL BSA, 2 h
  Total Cleavage: 1,4%
miR-18a; [4]
  Total Cleavage: 5%
miR-18a; [5]
  Total Cleavage: 19%
miR-18a; [6]
  Total Cleavage: 23%
miR-18a; buffer (2) 20 mM Tris-HCl pH 7.8, 40 mM KCl, 8 mM MgCl2, 1 mM DTT, 0.02 mg/mL BSA, 72 h
  Total Cleavage: 37%
miR-18a
  rise of Kobs in buffer (2) compared to Kobs in buffer (1): 7 fold
